Experimental findings from patent US20200283726A1, “PROCESS FOR CONTINUOUS CELL CULTURE OF GPSCS” (Georgetown University, priority 2017, published 2020) are described below.

The assay relates to gPSCs. Nature of the assay: Upstream/downstream ROCK pathway inhibitors used in the culture conditions in place of a ROCK inhibitor. Type of assay: cell-based. An excerpt:
As used herein, inhibiting ROCK can mean to reduce the activity, function or expression of at least one of ROCK1 or ROCK2. […] In general, ROCK phosphorylates LIM kinase and myosin light chain (MLC) phosphatase after being activated through binding of GTP-bound Rho. One embodiment of the present invention thus involves blocking the upstream pathway of ROCK1 and/or ROCK2, for example GTP-bound Rho, such that ROCK1 and/or ROCK2 is not activated or its activity is reduced over untreated cells. Other upstream effectors include but are not limited to, integrins, growth factor receptors, including but not limited to, TGF-beta and EGFR, cadherins, G protein coupled receptors and the like. Another embodiment of the present invention thus involves blocking the activity, function or expression of downstream effector molecules of activated ROCK1 and/or ROCK2 such that ROCK1 and/or ROCK2 cannot propagate any signal or can only propagate a reduced signal over untreated cells. Downstream effectors include but are not limited to, Myosin phosphatase-targeting protein (MYPT), vimentin, LIMK, Myosin light chain kinase, NHE1, cofilin, Myosin II and the like. […] Upstream or downstream inhibition of ROCK, in place of direct ROCK inhibition and in conjunction with the other culture conditions described and required herein, may or may not generate conditionally immortalized gPSCs.

For C3 transferase, the “Effect on cells in culture” value was “allow the cells to bypass differentiation and allow proliferation in vitro”.

With `Cc1ccc2c(c1)C(=O)C1(O)CCN(c3ccccc3)C1=N2` (centres unmarked) [blebbistatin], the “Effect on cells in culture” value was “allow the cells to bypass differentiation and allow proliferation in vitro”.
